Source: US10695334B2, “Heteroaromatic carboxamide derivatives as plasma kallikrein inhibitors” (Boehringer Ingelheim International GmbH, priority 2018, dated 2020)

Target: Human PKK (Homo sapiens (Human), UniProt P03952)
Test: Inhibition of PKK, endpoint assay (human PKK)
Type: biochemical
Conditions: substrate H-Pro-Phe-Arg-AMC, 1 h room temperature
Experimental: Subsequently, PPACK II (Calbiochem) was added as a stop solution to achieve a final concentration of 1 μM and fluorescence was measured using an Envision Reader (PerkinElmer) with the wavelength excitation setting of 355 nm and the wavelength emission setting of 460 nm.

Human PKK, sequence (P03952 391-638): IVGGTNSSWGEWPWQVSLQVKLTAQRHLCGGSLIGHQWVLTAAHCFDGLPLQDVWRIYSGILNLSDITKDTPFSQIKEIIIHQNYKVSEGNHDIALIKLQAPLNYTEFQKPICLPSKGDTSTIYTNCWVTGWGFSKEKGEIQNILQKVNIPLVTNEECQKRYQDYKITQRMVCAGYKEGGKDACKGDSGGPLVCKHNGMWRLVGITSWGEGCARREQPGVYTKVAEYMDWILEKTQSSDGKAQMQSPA
Human PKK, sequence (P03952 20-390 partner): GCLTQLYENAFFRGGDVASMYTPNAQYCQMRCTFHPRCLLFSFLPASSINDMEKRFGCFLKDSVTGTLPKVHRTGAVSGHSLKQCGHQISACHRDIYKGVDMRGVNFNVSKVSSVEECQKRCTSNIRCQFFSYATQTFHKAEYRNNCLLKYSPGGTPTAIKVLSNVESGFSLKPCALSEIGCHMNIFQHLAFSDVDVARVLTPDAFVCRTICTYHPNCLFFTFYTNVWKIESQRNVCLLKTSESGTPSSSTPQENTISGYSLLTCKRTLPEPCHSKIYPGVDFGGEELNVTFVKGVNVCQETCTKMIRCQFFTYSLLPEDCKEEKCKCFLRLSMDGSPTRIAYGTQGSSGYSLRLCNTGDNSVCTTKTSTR

IC50 [nM] | SMILES
2 | Cc1nc(N2CC3CC3C2)ccc1Cn1cc(C(=O)N[C@@H]2CCc3c(C)n[nH]c32)c(-c2cnn(C)c2)n1 (stereo partly drawn) [Example 32, 1-[(6-{3-Azabicyclo[3.1.0]hexan-3-yl}-2-methyl-pyridin-3-yl)methyl]-1′-methyl-N-[(6R)-3-methyl-1H,4H,5H,6H-cyclopenta[c]pyrazol-6-yl]-1H,1′H-[3,4′-bipyrazole]-4-carboxamide]
11 | Cc1nc(N2CCCCC2)ccc1Cn1cc(C(=O)N[C@@H]2CCc3c2n[nH]c3C)cn1 [Example 34, N-[(6R)-3-Methyl-2H,4H,5H,6H-cyclopenta[c]pyrazol-6-yl]-1-{[2-methyl-6-(piperidin-1-yl)pyridin-3-yl]methyl}-1H-pyrazole-4-carboxamide]
26 | Cc1nc(N2C[C@@H]3[C@@H](CO)[C@@H]3C2)ccc1Cn1cc(C(=O)N[C@@H]2CCc3c2n[nH]c3C)cn1 [Example 38, 1-({6-[(1R,5S,6R)-6-(Hydroxymethyl)-3-azabicyclo[3.1.0]hexan-3-yl]-2-methylpyridin-3-yl}methyl)-N-[(6R)-3-methyl-2H,4H,5H,6H-cyclopenta[c]pyrazol-6-yl]-1H-pyrazole-4-carboxamide]
137 | Cc1nc(N2CC3(CCOC3)C2)ccc1Cn1cc(C(=O)N[C@@H]2CCc3c2n[nH]c3C)cn1 [Example 40, N-[(6R)-3-Methyl-2H,4H,5H,6H-cyclopenta[c]pyrazol-6-yl]-1-[(2-methyl-6-{6-oxa-2-azaspiro[3.4]octan-2-yl]pyridin-3-yl)methyl]-1H-pyrazole-4-carboxamide]
13 | Cc1nc(N2CC(C)(C#N)C2)ccc1Cn1cc(C(=O)N[C@@H]2CCc3c2n[nH]c3C)cn1 [Example 41, 1-{[6-(3-Cyano-3-methylazetidin-1-yl)-2-methylpyridin-3-yl]methyl}-N-[(6R)-3-methyl-2H,4H,5H,6H-cyclopenta[c]pyrazol-6-yl]-1H-pyrazole-4-carboxamide]
6 | CCC1(C)CN(c2ccc(Cn3cc(C(=O)N[C@@H]4CCc5c4n[nH]c5C)cn3)c(C)n2)C1 [Example 42, 1-{[6-(3-Ethyl-3-methylazetidin-1-yl)-2-methylpyridin-3-yl]methyl}-N-[(6R)-3-methyl-2H,4H,5H,6H-cyclopenta[c]pyrazol-6-yl]-1H-pyrazole-4-carboxamide]
23 | Cc1nc(N2CC3COCC(C3)C2)ccc1Cn1cc(C(=O)N[C@@H]2CCc3c2n[nH]c3C)cn1 [Example 43, N-[(6R)-3-Methyl-2H,4H,5H,6H-cyclopenta[c]pyrazol-6-yl]-1-[(2-methyl-6-{3-oxa-7-azabicyclo[3.3.1]nonan-7-yl]pyridin-3-yl)methyl]-1H-pyrazole-4-carboxamide]
20 | COC1(C)CN(c2ccc(Cn3cc(C(=O)N[C@@H]4CCc5c4n[nH]c5C)cn3)c(C)n2)C1 [Example 44, 1-{[6-(3-Methoxy-3-methylazetidin-1-yl)-2-methylpyridin-3-yl]methyl}-N-[(6R)-3-methyl-2H,4H,5H,6H-cyclopenta[c]pyrazol-6-yl]-1H-pyrazole-4-carboxamide]
42 | Cc1nc(N2CC3CC2C3)ccc1Cn1cc(C(=O)N[C@@H]2CCc3c2n[nH]c3C)cn1 [Example 49, 1-[(6-{2-Azabicyclo[2.1.1]hexan-2-yl}-2-methylpyridin-3-yl)methyl]-N-[(6R)-3-methyl-2H,4H,5H,6H-cyclopenta[c]pyrazol-6-yl]-1H-pyrazole-4-carboxamide]
8 | Cc1nc(N2C[C@@H]3CNC(=O)[C@@H]3C2)ccc1Cn1cc(C(=O)N[C@@H]2CCc3c2n[nH]c3C)cn1 [Example 50, 1-({6-[(3aS,6aS)-4-Oxo-octahydropyrrolo[3,4-c]pyrrol-2-yl]-2-methylpyridin-3-yl}methyl)-N-[(6R)-3-methyl-2H,4H,5H,6H-cyclopenta[c]pyrazol-6-yl]-1H-pyrazole-4-carboxamide]
25 | Cc1nc(N2CC3(C2)CC3(F)F)ccc1Cn1cc(C(=O)N[C@@H]2CCc3c2n[nH]c3C)cn1 [Example 51, 1-[(6-{1,1-Difluoro-5-azaspiro[2.3]hexan-5-yl}-2-methylpyridin-3-yl)methyl]-N-[(6R)-3-methyl-2H,4H,5H,6H-cyclopenta[c]pyrazol-6-yl]-1H-pyrazole-4-carboxamide]
56 | Cc1nc(N2CC(CO)C2)ccc1Cn1cc(C(=O)N[C@@H]2CCc3c2n[nH]c3C)cn1 [Example 56, 1-({6-[3-(Hydroxymethyl)azetidin-1-yl]-2-methylpyridin-3-yl}methyl)-N-[(6R)-3-methyl-2H,4H,5H,6H-cyclopenta[c]pyrazol-6-yl]-1H-pyrazole-4-carboxamide]
37 | Cc1nc(N2CC(C#N)C2)ccc1Cn1cc(C(=O)N[C@@H]2CCc3c2n[nH]c3C)cn1 [Example 57, 1-{[6-(3-Cyanoazetidin-1-yl)-2-methylpyridin-3-yl]methyl}-N-[(6R)-3-methyl-2H,4H,5H,6H-cyclopenta[c]pyrazol-6-yl]-1H-pyrazole-4-carboxamide]

The remaining lines, values behind:

SMILES | IC50 [nM]
Cc1nc(N2CC3CC3C2)ccc1Cn1cc(C(=O)N[C@H]2CCc3c(C)n[nH]c32)cn1 (stereo partly drawn) [Example 2, 1-[(6-{3-Azabicyclo[3.1.0]hexan-3-yl}-2-methylpyridin-3-yl)methyl]-N-[(6S)-3-methyl-1H,4H,5H,6H-cyclopenta[c]pyrazol-6-yl]-1H-pyrazole-4-carboxamide] | 32
Cc1nc(N2CC3C(C2)C3(F)F)ccc1Cn1cc(C(=O)N[C@H]2CCc3c(C)n[nH]c32)cn1 (stereo partly drawn) [Example 4, 1-[(6-{6,6-Difluoro-3-azabicyclo[3.1.0]hexan-3-yl}-2-methylpyridin-3-yl)methyl]-N-[(6S)-3-methyl-1H,4H,5H,6H-cyclopenta[c]pyrazol-6-yl]-1H-pyrazole-4-carboxamide] | 9
Cc1nc(N2CC3CC3C2)ccc1Cn1ncc(C(=O)N[C@@H]2CCc3c(C)n[nH]c32)n1 (stereo partly drawn) [Example 10, 2-[(6-{3-Azabicyclo[3.1.0]hexan-3-yl}-2-methylpyridin-3-yl)methyl]-N-[(6R)-3-methyl-1H,4H,5H,6H-cyclopenta[c]pyrazol-6-yl]-2H-1,2,3-triazole-4-carboxamide] | 26
Cc1nc(N2CC3C(C2)C3(F)F)ccc1Cn1cc(C(=O)N[C@@H]2CCc3c(C)n[nH]c32)c(C)n1 (stereo partly drawn) [Example 18, 1-[(6-{6,6-Difluoro-3-azabicyclo[3.1.0]hexan-3-yl}-2-methylpyridin-3-yl)methyl]-3-methyl-3-methyl-N-[(6R)-3-methyl-1H,4H,5H,6H-cyclopenta[c]pyrazol-6-yl]-1H-pyrazole-4-carboxamide] | 0.9
Cc1nc(N2CC3(CC3)C2)ccc1Cn1cc(C(=O)N[C@@H]2CCc3c(C)n[nH]c32)c(C)n1 [Example 24, 1-[(6-{5-Azaspiro[2.3]hexan-5-yl}-2-methylpyridin-3-yl)methyl]-3-methyl-N-[(6R)-3-methyl1H,4H,5H,6H-cyclopenta[c]pyrazol-6-yl]-1H-pyrazole-4-carboxamide] | 2
COCc1nn(Cc2cnc(N3CC4C(C3)C4(F)F)nc2C)cc1C(=O)N[C@@H]1CCc2c(C)n[nH]c21 (stereo partly drawn) [Example 26, 1-[(2-{6,6-Difluoro-3-azabicyclo[3.1.0]hexan-3-yl}-4-methylpyrimidin-5-yl)methyl]-3-(methoxy-methyl)-N-[(6R)-3-methyl-1H,4H,5H,6H-cyclo-penta[c]pyrazol-6-yl]-1H-pyrazole-4-carboxamide] | 3
Cc1nc(N2CC3C(C2)C3(F)F)ncc1Cn1cc(C(=O)N[C@@H]2CCc3c(C)n[nH]c32)c(C)n1 (stereo partly drawn) [Example 27, 1-[(2-{6,6-Difluoro-3-azabicyclo[3.1.0]hexan-3-yl}-4-methylpyrimidin-5-yl)methyl]-3-methyl-N-[(6R)-3-methyl-1H,4H,5H,6H-cyclopenta[c]pyrazol-6-yl]-1H-pyrazole-4-carboxamide] | 3
COCc1nn(Cc2cnc(N3CC4CC4C3)nc2C)cc1C(=O)N[C@@H]1CCc2c(C)n[nH]c21 (stereo partly drawn) [Example 28, 1-[(2-{3-Azabicyclo[3.1.0]hexan-3-yl}-4-methyl-pyrimidin-5-yl)methyl]-3-(methoxymethyl)-N-[(6R)-3-methyl-1H,4H,5H,6H-cyclopenta[c]pyrazol-6-yl]-1H-pyrazole-4-carboxamide] | 4
Cc1nc(N2CC3(CC3)C2)ncc1Cn1cc(C(=O)N[C@@H]2CCc3c(C)n[nH]c32)c(C)n1 [Example 29, 1-[(2-{5-Azaspiro[2.3]hexan-5-yl}-4-methyl-pyrimidin-5-yl)methyl]-3-methyl-N-[(6R)-3-methyl-1H,4H,5H,6H-cyclpenta[c]pyrazol-6-yl]-1H-pyrazole-4-carboxamide] | 7
Cc1nc(N2CC3(CC3)C2)ncc1Cn1cc(C(=O)N[C@@H]2CCc3c(C)n[nH]c32)cn1 [Example 30, 1-[(2-{5-Azaspiro[2.3]hexan-5-yl}-4-methyl-pyrimidin-5-yl)methyl]-N-[(6R)-3-methyl-1H,4H,5H,6H-cyclopenta[c]pyrazol-6-yl]-1H-pyrazole-4-carboxamide] | 8
COCc1nn(Cc2cnc(N3CC4(CC4)C3)nc2C)cc1C(=O)N[C@@H]1CCc2c(C)n[nH]c21 [Example 31, 1-[(2-{5-Azaspiro[2.3]hexan-5-yl}-4-methyl-pyrimidin-5-yl)methyl]-3-(methoxymethyl)-N-[(6R)-3-methyl-1H,4H,5H,6H-cyclopenta[c]pyrazol-6-yl]-1H-pyrazole-4-carboxamide] | 10
Cc1nc(N2CC3CC(C2)C3O)ccc1Cn1cc(C(=O)N[C@@H]2CCc3c2n[nH]c3C)cn1 (stereo partly drawn) [Example 39, 1-[(6-{6-Hydroxy-3-azabicyclo[3.1.1]heptan-3-yl]-2-methylpyridin-3-yl)methyl]-N-[(6R)-3-methyl-2H,4H,5H,6H-cyclopenta[c]pyrazol-6-yl]-1H-pyrazole-4-carboxamide] | 9
COC1C2CC1CN(c1ccc(Cn3cc(C(=O)N[C@@H]4CCc5c4n[nH]c5C)cn3)c(C)n1)C2 (stereo partly drawn) [Example 53, 1-[(6-{6-methoxy-3-azabicyclo[3.1.1]heptan-3-yl}-2-methylpyridin-3-yl)methyI]-N-[(6R)-3-methyl-2H,4H,5H,6H-cyclopenta[c]pyrazol-6-yl]-1H-pyrazole-4-carboxamide] | 9
